The values below come from patent publication US20030215462A1, “Use of UGT inhibitors to increase bioavailability” (priority 2001, published 2003).

Values joined by “and” are separate entries in the source; they are usually repeats but may differ in a detail not shown here. Equal values may be shown once.

Data set [1] concerns T1, UGT enzymes of human liver microsomes.
T1 construct: percentage of control metabolism, 7-HFC glucuronidation; percentage of control metabolism, 7-HFC glucuronidation
As to the kind of experiment: Inhibition of 7-HFC glucuronidation in human liver microsomes. The note with it: inhibitor 500 μM. It counts as biochemical.

For data set [2], the system named is UGT enzymes of human liver microsomes. Briefly: Inhibition of raloxifene glucuronidation (G1, G2) in human liver microsomes. It counts as biochemical. The note with it: raloxifene 50 μM; for % of control metabolism (SD, n = 3), raloxifene glucuronide G1 / % of control metabolism (SD, n = 3), raloxifene glucuronide G2: human liver microsomes 250 μg/ml, 15 min. The source says: Compounds were eluted using a binary solvent gradient system. […] Solvent B was methanol. […] Detection was at 280 nm.

The target in data set [3] is T2, UGT enzymes of human liver microsomes (Homo sapiens, UniProt P16662).
T2 construct: residual metabolism (percentage of control), zidovudine glucuronidation; other: liver lot 062101; residual metabolism (percentage of control), zidovudine glucuronidation; residual metabolism (percentage of control)
T2 sequence (P16662 1-529): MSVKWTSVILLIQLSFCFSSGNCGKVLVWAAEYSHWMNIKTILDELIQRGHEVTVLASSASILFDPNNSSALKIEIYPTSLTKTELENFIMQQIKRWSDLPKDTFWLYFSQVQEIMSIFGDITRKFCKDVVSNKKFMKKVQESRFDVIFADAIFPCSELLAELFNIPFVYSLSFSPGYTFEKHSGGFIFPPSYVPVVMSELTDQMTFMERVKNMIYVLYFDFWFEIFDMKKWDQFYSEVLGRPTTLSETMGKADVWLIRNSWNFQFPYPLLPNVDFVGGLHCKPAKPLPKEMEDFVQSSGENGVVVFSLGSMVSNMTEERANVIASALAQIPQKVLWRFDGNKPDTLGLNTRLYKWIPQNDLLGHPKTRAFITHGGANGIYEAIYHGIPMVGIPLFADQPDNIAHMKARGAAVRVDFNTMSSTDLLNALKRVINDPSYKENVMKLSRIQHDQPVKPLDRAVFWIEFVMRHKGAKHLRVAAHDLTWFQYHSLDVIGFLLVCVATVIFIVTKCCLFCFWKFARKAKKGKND
Briefly: Inhibition of zidovudine glucuronidation in human liver microsomes. The note with it: liver lot 062101. It counts as biochemical. The method, then: Compounds were eluted using a binary solvent gradient system where solvent A was dilute phosphoric acid (pH 3) and solvent B was acetonitrile.
Standardized incubations utilized 500 μM zidovudine substrate, 1 mg/ml microsomal protein, 5 mM UDPGA and a 30 min incubation time. […] Int.

Data set [4] concerns UGT enzymes of pooled human jejunum microsomes. Briefly: Inhibition of zidovudine glucuronidation in pooled human jejunum microsomes. It counts as biochemical.
Procedure: Increasing the microsomal protein concentration to 1 mg/ml and extending the incubation time to 60 min provided meaningful metabolite levels for inhibition studies.
Data set [5] relates to T3, UGT enzymes of human liver microsomes.
T3 construct: other: liver 062101
Briefly: Inhibition of 2ME2 glucuronidation (MG1, MG2) in human liver microsomes. The data set is classed as biochemical. The note with it: liver 062101, 2ME2 50 μM. The source says: (§1) Compounds were eluted using a binary solvent gradient system where solvent A was dilute phosphoric acid (pH 3) and solvent B was 80:20 acetonitrile-methanol. […] Detection was at 280 nm.

In data set [6] the test system is UGT enzymes of pooled human jejunum microsomes. Briefly: Inhibition of 2ME2 glucuronidation (MG1) in pooled human jejunum microsomes. The data set is classed as biochemical. The note with it: jejunum HJ61, 2ME2 50 μM.
Text: as §1

Data set [7] addresses T4, UGT1A1 (Homo sapiens, UniProt P22309).
T4 sequence (P22309 26-533): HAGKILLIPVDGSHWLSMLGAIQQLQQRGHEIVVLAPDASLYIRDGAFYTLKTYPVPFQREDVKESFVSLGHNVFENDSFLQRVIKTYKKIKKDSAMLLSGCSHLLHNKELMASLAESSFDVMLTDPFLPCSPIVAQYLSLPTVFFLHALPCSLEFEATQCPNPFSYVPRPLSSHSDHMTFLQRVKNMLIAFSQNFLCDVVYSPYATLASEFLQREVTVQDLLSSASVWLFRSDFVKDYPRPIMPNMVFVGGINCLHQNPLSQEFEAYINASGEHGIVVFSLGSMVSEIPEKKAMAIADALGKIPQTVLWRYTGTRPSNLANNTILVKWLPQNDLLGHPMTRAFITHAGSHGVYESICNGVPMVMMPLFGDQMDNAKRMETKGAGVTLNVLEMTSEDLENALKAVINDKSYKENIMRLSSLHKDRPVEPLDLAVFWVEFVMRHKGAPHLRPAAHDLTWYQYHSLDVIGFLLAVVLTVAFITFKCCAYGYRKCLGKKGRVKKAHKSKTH
As to the kind of experiment: Inhibition of raloxifene glucuronidation by recombinant UGT1A1 Supersomes. The note with it: for Inhibition of raloxifene glucuronidation, G1, UGT1A1 / Inhibition of raloxifene glucuronidation, G2, UGT1A1: raloxifene 50 μM, 250 μg/ml Supersomes, 1 mM UDPGA, 15 min; for % of control metabolism, raloxifene G1 / % of control metabolism, raloxifene G2: UGT1A1.
Procedure: Compounds were eluted using a binary solvent gradient system. Solvent A was water brought to pH 8 with NH4OH. Solvent B was methanol. Solvent flow rate was 1 ml/min and the column temperature was maintained at 50° C. Detection was at 280 nm. […] The system was then returned to the initial conditions and equilibrated for 3 min.

For data set [8] the following is noted: humans; cited from earlier work.
[9] abbreviates: inhibitor column headed only "μM" (between 25 μM and 5 μM).

As to `C#C[C@]1(O)CC[C@H]2[C@@H]3CCc4cc(O)ccc4[C@H]3CC[C@@]21C` [17-α-Ethinylestradiol, 17-α-ethinylestradiol, reference compound], the “percentage of control metabolism, 7-HFC glucuronidation” value in data set [1] is recorded as 72 (1) %. In addition, in data set [1] (7-HFC 50 μM, human liver microsomes 100 μg/ml, 15 min), the “% of control metabolism (SD, n = 3), 7-HFC glucuronidation” value is 72 (1) %. For the same compound, the “% of control metabolism (SD, n = 3), raloxifene glucuronide G1” value in data set [2] (inhibitor 25 μM) was 66 (3) %; in data set [2] (inhibitor 50 μM) it was 42 (2) %; in data set [2] (inhibitor 100 μM) it was 31 (2) %; in data set [2] (inhibitor 500 μM), 2 (0) %. The “% of control metabolism (SD, n = 3), raloxifene glucuronide G2” value is reported as 80 (3) % in data set [2] (inhibitor 25 μM), 60 (2) % in data set [2] (inhibitor 50 μM), 56 (3) % in data set [2] (inhibitor 100 μM) and 6 (0) % in data set [2] (inhibitor 500 μM). Further, the “% of control metabolism, raloxifene G1” value in data set [2] (inhibitor 25 μM) is reported as 66 (3) %; in data set [2] (inhibitor 50 μM), 42 (2) %; in data set [2] (inhibitor 100 μM) it was 31 (2) %; in data set [7] (inhibitor 25 μM) it was 53 (0) %; in data set [7] (inhibitor 50 μM), 33 (1) %. Besides, the “% of control metabolism, raloxifene G2” value was 80 (3) % in data set [2] (inhibitor 25 μM); 60 (2) % in data set [2] (inhibitor 50 μM); 56 (3) % in data set [2] (inhibitor 100 μM); 72 (1) % in data set [7] (inhibitor 25 μM); 58 (3) % in data set [7] (inhibitor 50 μM). For the same compound, the “residual metabolism (percentage of control), zidovudine glucuronidation” value is 54 (2) % in data set [3] (inhibitor 50 μM); 40 (2) % in data set [3] (inhibitor 100 μM); 24 (1) % in data set [3] (inhibitor 200 μM); 13 (1) % and 10 (1) % in data set [3] (inhibitor 500 μM). In data set [4] (inhibitor 100 μM), the “residual metabolism (percentage of control), zidovudine” value is 30 (1) %. Further, the “residual metabolism (% of control), 2ME2 MG1” value in data set [5] (inhibitor 25 μM) is 74 (1) %; in data set [5] (inhibitor 50 μM) it was 64 (2) %; in data set [5] (inhibitor 100 μM) it was 48 (0) %; in data set [6] (inhibitor 50 μM), 109 (5) %; in data set [6] (inhibitor 100 μM), 99 (2) %. Moreover, the entries for the “residual metabolism (% of control), 2ME2 MG2” value in data set [5] (inhibitor 25 μM), in data set [5] (inhibitor 50 μM) and in data set [5] (inhibitor 100 μM) were 62 (1) %, 41 (3) % and 4 (0) %, respectively. Further, the entries for the “Inhibition of raloxifene glucuronidation, G1, UGT1A1” value in data set [7] (inhibitor 25 μM), in data set [7] (inhibitor 50 μM) and in data set [7] (setting [9]) were 53 (0), 33 (1) and 81 (0), respectively. Also, the figures for the “Inhibition of raloxifene glucuronidation, G2, UGT1A1” value in data set [7] (inhibitor 25 μM), in data set [7] (inhibitor 50 μM) and in data set [7] (setting [9]) were 72 (1), 58 (3) and 91 (1), respectively.

On to `CC1CCC(C(C)C)C(O)C1` (centres unmarked) [Menthol], for which the “residual metabolism (percentage of control), zidovudine glucuronidation” value in data set [3] (inhibitor 200 μM) was 63 (6) %; in data set [3] (inhibitor 500 μM), 43 (1) % and 37 (4) %; in data set [3] (inhibitor 1000 μM) it was 25 (2) %. In addition, the “residual metabolism (percentage of control), zidovudine” value in data set [4] (inhibitor 500 μM) is 32 (3) %. In addition, the “residual metabolism (% of control), 2ME2 MG1” value in data set [5] (inhibitor 50 μM) is reported as 96 (2) %; in data set [5] (inhibitor 100 μM), 92 (2) %; in data set [6] (inhibitor 50 μM), 98 (4) %; in data set [6] (inhibitor 100 μM) it was 125 (7) %. The “residual metabolism (% of control), 2ME2 MG2” value is given as 86 (1) % in data set [5] (inhibitor 50 μM) and 74 (3) % in data set [5] (inhibitor 100 μM).

With `CCc1c2c(nc3ccc(OC(=O)N4CCC(N5CCCCC5)CC4)cc13)-c1cc3c(c(=O)n1C2)COC(=O)[C@]3(O)CC` [irinotecan], in data set [8], the absolute oral bioavailability entry is listed as “approximately 13%”.
